Test results from US20250376498A1, “FUSION PROTEINS COMPRISING AN IMPROVED GLP-1 RECEPTOR AGONIST AND USES THEREOF” (Guangzhou Innogen Pharmaceutical Group Co., Ltd., priority 2022, published 2025).
Where two headings read alike, the source gives them in different places.

What was measured:
[1] = cited from earlier work
[2] = Determination of oxidation levels by LC-MS/MS; format: physicochemical
Method: Following the protein oxidation measurement method described in Example 2 or by referring to Bettinger et al., the oxidation levels were determined. It was observed that the GLP-1 fusion protein YN-011 of the present invention was not oxidized at position W31, whereas the oxidation level of […] at the same position exceeded 5%. The oxidation occurred at the location indicated by the rectangular box in the structure of W31.

[3] = system: db/db mice; assay: Multiple subcutaneous injections in db/db mice (type 2 diabetes model); format: in vivo; conditions: db/db mice
Method: The impact of multiple subcutaneous injections of YN-011 on reducing blood glucose levels was evaluated in db/db mice (Jackson Laboratories, 000642). The mice were kept under normal lighting conditions (12 hours light/12 hours dark) and at room temperature, with free access to food (normal rodent chow) and water. Db/db mice lack leptin receptors and spontaneously develop obesity, hyperglycemia, and pancreatic B-cell atrophy by 4 weeks of age.
Sixty affected db/db mice (33-45g) were divided into six groups of 10 mice each (5 males and 5 females) and administered 0 (PBS buffer control), 0.15, 0.3, 0.6, or 1.2 mg/kg of YN-011, or 0.3 mg/kg of Degludec via subcutaneous injection. Another group of wild-type mice (17-22g) with the same genetic background served as the normal control. The administration frequency was once every 3 days (Q3D), with a total of 9 doses administered over a period of 26 days. […] The duration of the hypoglycemic effect ranged from 34 to 72 hours within the dose range of 0.15-1.2 mg/kg.

[4] = cited from earlier work; remark: listed apart in the source
[5] = marketed drugs, refs [22], [24]; cited from earlier work
[6] = dulaglutide 1.5 mg in combination with metformin, 40 weeks (Dungan et al.)
[7] = dulaglutide 1.5 mg, 26 weeks (Shi et al.)
[8] = semaglutide 1 mg, 30 weeks (Sorli et al.)

CCCCCCCCCCCCCCCC(=O)N[C@@H](CCC(=O)NCCCC[C@H](NC(=O)[C@H](C)NC(=O)[C@H](C)NC(=O)[C@H](CCC(N)=O)NC(=O)CNC(=O)[C@H](CCC(=O)O)NC(=O)[C@H](CC(C)C)NC(=O)[C@H](Cc1ccc(O)cc1)NC(=O)[C@H](CO)NC(=O)[C@H](CO)NC(=O)[C@@H](NC(=O)[C@H](CC(=O)O)NC(=O)[C@H](CO)NC(=O)[C@@H](NC(=O)[C@H](Cc1ccccc1)NC(=O)[C@@H](NC(=O)CNC(=O)[C@H](CCC(=O)O)NC(=O)[C@H](C)NC(=O)[C@@H](N)Cc1cnc[nH]1)[C@@H](C)O)[C@@H](C)O)C(C)C)C(=O)N[C@@H](CCC(=O)O)C(=O)N[C@@H](Cc1ccccc1)C(=O)N[C@H](C(=O)N[C@@H](C)C(=O)N[C@@H](Cc1c[nH]c2ccccc12)C(=O)N[C@@H](CC(C)C)C(=O)N[C@H](C(=O)N[C@@H](CCCNC(=N)N)C(=O)NCC(=O)N[C@@H](CCCNC(=N)N)C(=O)NCC(=O)O)C(C)C)[C@@H](C)CC)C(=O)O [liraglutide]
incidence of nausea ([1]; liraglutide 1 mg, 24 weeks (Shuai et al.)): 5.6%
incidence of nausea ([1]; liraglutide 3 mg, 24 weeks (Shuai et al.)): 10%

Degludec [reference compound]
oxidation level at position M253 [2]: exceeding 5%
oxidation level at position W31 [2]: exceeded 5%
average rate of fasting blood glucose reduction ([3]; 0.3 mg/kg Q3D sc, average over measurement time points): 63.6%
fasting blood glucose levels versus model control group ([3]; Q3D sc, YN-011 all dose groups (P<0.001), Degludec 0.3 mg/kg): significant decrease

Dulaglutide: DPP-IV protected GLP-1 analog fused with an IgG4/Fc fragment
incidence of hypoglycemia [4, 6]: 9%
incidence of nausea [4, 6]: 20%
reduction in FPG levels [4, 6]: 1.93%
reduction in HbA1c levels [4, 6]: 1.42%
incidence of hypoglycemia ([1]; dulaglutide 0.75 mg, 26 weeks (Shi et al.)): 4.1%
incidence of hypoglycemia [1, 7]: 6.3%
incidence of nausea [1, 7]: 9.5%
reduction in HbA1c levels [1, 7]: 1.46%
half-life / elimination half-life [5]: 113 to 132 h

Semaglutide
incidence of nausea ([4]; semaglutide 1 mg in combination with metformin, 30 weeks (Ji et al.)): 13.4%
incidence of nausea ([1]; semaglutide 0.5 mg, 30 weeks (Sorli et al.)): 20%
incidence of nausea [1, 8]: 24%
reduction in HbA1c levels [1, 8]: 1.55%
half-life / elimination half-life [5]: 137 to 161 h
